Experiment: Animal biodistribution (in vivo, i.v. injection)
Details: rats; for Blood, % injected dose/organ: blood taken as 5.8% of body weight; for Muscle, % injected dose/organ: muscle taken as 43% of body weight
Description: 0.1 ml Tc^99m prep was injected i.v. into a lateral tail vein of 6 anaesthetised rats.
At 2 minutes and 60 minutes post injection, 3 rats were sacrificed by decapitation, bled from the neck and dissected. The following organs were removed at dissection: kidney, bladder(+urine), lung, liver, spleen, stomach, small intestine, large intestine, brain (weighed), heart (weighed), thyroid, and samples of blood (weighed) and muscle (weighed, the residual carcass and the tail (injection site). Subsequently samples were counted in an automatic twin crystal gamma counter.
Percentage biodistribution of injected material was calculated (after correction for background) for all organs using the formula: [formula]
Since only samples of muscle and blood were taken, the percentage in these tissues was calculated assuming blood and muscle to represent 5.8 and 43% of total animal weight respectively using the formula: [formula] where CF= 0.058 for blood

| SMILES | Brain, % injected dose/organ (2 min p.i.) | Heart, % injected dose/organ (2 min p.i.) | Heart/Blood Counts/Gram ratio (2 min p.i.) | Heart/Liver Counts/Gram ratio (2 min p.i.) | Heart/Lung Counts/Gram ratio (2 min p.i.) | Heart/Muscle Counts/Gram ratio (2 min p.i.) | Kidney + Urine, % injected dose/organ (2 min p.i.) | Liver, % injected dose/organ (2 min p.i.) | Lung, % injected dose/organ (2 min p.i.) | Blood, % injected dose/organ (2 min p.i.) | Muscle, % injected dose/organ (2 min p.i.) | Brain, % injected dose/organ (60 min p.i.) | Heart, % injected dose/organ (60 min p.i.) | Heart/Blood Counts/Gram ratio (60 min p.i.) | Heart/Liver Counts/Gram ratio (60 min p.i.) | Heart/Lung Counts/Gram ratio (60 min p.i.) | Kidney + Urine, % injected dose/organ (60 min p.i.) | Liver, % injected dose/organ (60 min p.i.) | Lung, % injected dose/organ (60 min p.i.) | Muscle, % injected dose/organ (60 min p.i.) | other results |
| --- | --- | --- | --- | --- | --- | --- | --- | --- | --- | --- | --- | --- | --- | --- | --- | --- | --- | --- | --- | --- | --- |
| CP(C)CCP(C)C.CP(C)CCP(C)C.N#[O+].[99Tc+].[Cl-].[Cl-] | 0.04 % injected dose/organ | 0.46 % injected dose/organ | 0.68 | 0.38 | 0.71 | 1.85 | 10.18 % injected dose/organ | 15.03 % injected dose/organ | 1.09 % injected dose/organ | 9.96 % injected dose/organ | 27.00 % injected dose/organ | 0.01 % injected dose/organ | 0.30 % injected dose/organ | 4.48 | 1.13 | 1.53 | 42.60 % injected dose/organ | 3.14 % injected dose/organ | 0.33 % injected dose/organ | 14.10 % injected dose/organ | Liver + GI, % injected dose/organ (2 min p.i.): 26.33 % injected dose/organ; Heart/Muscle Counts/Gram ratio (60 min p.i.): 2.34; Liver + GI, % injected dose/organ (60 min p.i.): 34.70 % injected dose/organ; Blood, % injected dose/organ (60 min p.i.): 1.02 % injected dose/organ |
| O=[N][99Tc]1([Cl])([Cl])([Cl])[N]2C=CC=c3ccc4c(c32)[N]1C=CC=4 [[^99 Tc(NO)(1,10 phen)Cl3]°] | 0.08 % injected dose/organ | 0.40 % injected dose/organ | 1.59 | 35.14 | 1.55 | 1.99 | 1.97 % injected dose/organ | 0.16 % injected dose/organ | 0.67 % injected dose/organ | 3.98 % injected dose/organ | 22.83 % injected dose/organ | 0.04 % injected dose/organ | 0.29 % injected dose/organ | 1.36 | 10.63 | 2.57 | 16.05 % injected dose/organ | 0.46 % injected dose/organ | 0.23 % injected dose/organ | 17.02 % injected dose/organ | Heart/Muscle Counts/Gram ratio (60 min p.i.): 4.68; Blood, % injected dose/organ (60 min p.i.): 3.49 % injected dose/organ |
| O=[N][99Tc]([Cl])([Cl])[Cl].c1ccc(-c2ccccn2)nc1 [[^99 Tc(NO)Cl3 (Bipy)], bipyridyltrichloronitrosyltechnetium (11)] | 0.06 % injected dose/organ | 0.32 % injected dose/organ | 0.99 | 1.31 | 1.30 | 1.69 | 11.30 % injected dose/organ | 3.43 % injected dose/organ | 0.45 % injected dose/organ | 7.17 % injected dose/organ | 24.17 % injected dose/organ | 0.04 % injected dose/organ | 0.30 % injected dose/organ | 2.12 | 1.09 | 4.13 | 22.96 % injected dose/organ | 3.35 % injected dose/organ | 0.10 % injected dose/organ | 18.95 % injected dose/organ | Liver + GI, % injected dose/organ (2 min p.i.): 0.00 % injected dose/organ; Heart/Muscle Counts/Gram ratio (60 min p.i.): 2.02; Liver + GI, % injected dose/organ (60 min p.i.): 0.00 % injected dose/organ; Blood, % injected dose/organ (60 min p.i.): 2.02 % injected dose/organ |
| O=[N][Tc+][Cl].[C-]#[N+]C(C)(C)C.[C-]#[N+]C(C)(C)C.[C-]#[N+]C(C)(C)C.[C-]#[N+]C(C)(C)C [[^99 Tc(NO)Cl(t-BuCN)4]^+] | 0.04 % injected dose/organ | 1.09 % injected dose/organ | 6.19 | 2.58 | 3.34 | – | 6.86 % injected dose/organ | 5.82 % injected dose/organ | 0.64 % injected dose/organ | 0.40 % injected dose/organ | 21.45 % injected dose/organ | 0.04 % injected dose/organ | 1.37 % injected dose/organ | 8.98 | 2.97 | 26.02 | 8.15 % injected dose/organ | 5.89 % injected dose/organ | 0.12 % injected dose/organ | 18.30 % injected dose/organ | – |
| O=[N][99Tc-]([Cl])([Cl])([Cl])[Cl] [[^99m TcNOCl4]^-] | 0.09 % injected dose/organ | 0.55 % injected dose/organ | 0.41 | 1.37 | – | 2.14 | 6.26 % injected dose/organ | 5.31 % injected dose/organ | 2.09 % injected dose/organ | 20.32 % injected dose/organ | 30.35 % injected dose/organ | 0.05 % injected dose/organ | 0.42 % injected dose/organ | 0.43 | 0.98 | – | 14.61 % injected dose/organ | 4.59 % injected dose/organ | 1.71 % injected dose/organ | 30.41 % injected dose/organ | Liver + GI, % injected dose/organ (2 min p.i.): 13.49 % injected dose/organ; Heart/Muscle Counts/Gram ratio (60 min p.i.): 1.66; Liver + GI, % injected dose/organ (60 min p.i.): 11.89 % injected dose/organ; Blood, % injected dose/organ (60 min p.i.): 14.94 % injected dose/organ |

Reference: US5081232A, “Complexes of TC99m radiopharmaceuticals” (priority 1987, dated 1992)
